In US20220389477A1, “METHOD FOR EVALUATING ANTIBIOTIC SUSCEPTIBILITY” (Vrije Universiteit Brussel, priority 2019, published 2022):
In brackets after ≈: the same amount, converted by molar mass.

What was measured:
Format in all cases: cell-based
[1] = test system: Klebsiella pneumonia culture; assay: Optical third-derivative MIC method, culture in broth; conditions: for MIC: Klebsiella pneumoniae
Excerpt: The method of FIG. 1 starts at a time equal to zero, t0 (1). Preferably, said t0 is the moment a pure bacteria culture is finished being prepared. Alternatively, said t0 is the moment all wells contain both said bacteria culture and said antimicrobial drug. After the starting of the experiment each well is periodically illuminated with a light source and the intensity of the transmitted light is detected with a photodetector (2). Preferably, each well is illuminated and the intensity of the transmitted light is detected every hour (2). More preferably, each well is illuminated and the intensity of the transmitted light is detected every 5 to 15 min. After a predetermined time length, preferably after 4 hours, a first, a second and a third derivative of said measured intensity is calculated (3) in a first and a second time frame for each well. Preferably, said second time frame is the last measured time frame after the test has been running for said predetermined time length, and said first time frame is the time frame preceding the second time frame. More preferably, said first time frame is between two and three hours and said second time frame is between three and four hours. After the calculation of said derivatives, said first derivative in said second time frame of said reference well is compared to a growth speed threshold value (4). Preferably, said growth speed threshold value is 0.166 (4). If said first derivative in said second time frame of said reference well is larger than or equal to said growth speed threshold value said bacteria culture is classified as Type I (4). If said first derivative in said second time frame of said reference well is smaller than said growth speed threshold value said bacteria culture is classified as Type II (4). Subsequently, independent of the classification of the bacteria culture according to the two types, the method comprises the following steps which are performed for each well or for all wells except said reference well. Both said first and said second time frames are evaluated to see if there is an inflection point present in the second derivative in said first and/or said second time frame (5).
If said first and/or said second time frame comprise said inflection point than said third derivative in said first time frame is compared to said third derivative in said second time frame (6). If said third derivative in said first time frame is larger than said third derivative in said second time frame, then said first time frame and said second time frame are selected as a first and second time frame to be used in a minimal inhibitory concentration determination method (10). If said third derivative in said first time frame is not larger than said third derivative in said second time frame, then said well is illuminated again after a certain time period, preferably an hour, more preferably 5 to 15 min after said predetermined time length said, with a light source and the intensity of the transmitted light is detected with a photodetector forming a new time frame subsequent to said second time frame (7). A third derivative, and possibly also a first and/or a second derivative, is calculated in said new time frame (7). Further, in step (7) a new first time frame is put equal to said second time frame and a new second time frame to equal to said new time frame. Subsequently, said third derivative in said new first time frame is compared to said third derivative in said new second time frame (8). If said derivative in said new first time frame is larger than said third derivative in said new second time frame, then said new first time frame and said new second time frame are selected as a first and second time frame to be used in a minimal inhibitory concentration determination method (10). […]

[2] = test system: Acinetobacter Species; assay: E-test; conditions: culture AC/2990
[3] = test system: Acinetobacter Species; assay: Broth microdilution (BMD); conditions: culture AC/2990
[4] = test system: Klebsiella pneumonia culture; assay: E-test; conditions: Klebsiella pneumoniae
[5] = test system: Klebsiella pneumonia culture; assay: Broth microdilution (BMD); conditions: Klebsiella pneumoniae

C[C@@H](O)[C@H]1C(=O)N2C(C(=O)O)=C(SCCN=CN)C[C@H]12 [imipenem]
MIC ([1]; 4 h, KP/38.3002, FIG. 5C, Table 5, 4 h-5 h, read-out: MIC (60%) T2): 8 µg/mL (≈ 26.7 µM) | MIC ([1]; 4 h, KP/38.3002, FIG. 5C, Table 5, 4 h-5 h, read-out: MIC (75%) T2): 8 µg/mL (≈ 26.7 µM) | MIC ([1]; 4 h, KP/153.4346, 4 h-5 h, read-out: MIC (25%) T2): > 256 µg/mL | MIC ([1]; 4 h, KP/153.4346, 4 h-5 h, read-out: MIC (40%) T2): > 256 µg/mL | MIC ([1]; 4 h, KP/153.4346, 4 h-5 h, read-out: MIC (60%) T2): 16 µg/mL (≈ 53.4 µM) | MIC ([1]; 4 h, KP/153.4346, 4 h-5 h, read-out: MIC (75%) T2): 16 µg/mL (≈ 53.4 µM) | MIC ([1]; 4 h, MP/072.3489, 4 h-5 h, read-out: MIC (25%) T2): 16 µg/mL (≈ 53.4 µM) | MIC ([1]; 4 h, MP/072.3489, 4 h-5 h, read-out: MIC (40%) T2): 8 µg/mL (≈ 26.7 µM) | MIC ([1]; 4 h, MP/072.3489, 4 h-5 h, read-out: MIC (60%) T2): 8 µg/mL (≈ 26.7 µM) | MIC ([1]; 4 h, MP/072.3489, 4 h-5 h, read-out: MIC (75%) T2): 8 µg/mL (≈ 26.7 µM) | MIC ([1]; 5 h, KP/38.3002, FIG. 5H, both repetitions, read-out: MIC value determined by the method): 16 µg/mL (≈ 53.4 µM) | MIC ([1]; KP/38.3002, FIG. 5C, overall conclusion, read-out: MIC value determined by the method): 16 µg/mL (≈ 53.4 µM) | MIC ([1]; KP/38.3002, FIG. 5H repetition, Table 10, 3 h-4 h, read-out: MIC (25%) T1): 0.5 µg/mL (≈ 1.67 µM) | MIC ([1]; KP/38.3002, FIG. 5H repetition, Table 10, 3 h-4 h, read-out: MIC (40%) T1): 0.5 µg/mL (≈ 1.67 µM) | MIC ([1]; KP/38.3002, FIG. 5H repetition, Table 10, 3 h-4 h, read-out: MIC (60%) T1): 0.5 µg/mL (≈ 1.67 µM) | MIC ([1]; KP/38.3002, FIG. 5H repetition, Table 10, 3 h-4 h, read-out: MIC (75%) T1): 0.5 µg/mL (≈ 1.67 µM) | MIC ([1]; KP/38.3002, FIG. 5H repetition, Table 10, 4 h-5 h, read-out: MIC (25%) T2): 16 µg/mL (≈ 53.4 µM) | MIC ([1]; KP/38.3002, FIG. 5H repetition, Table 10, 4 h-5 h, read-out: MIC (40%) T2): 16 µg/mL (≈ 53.4 µM) | MIC ([1]; KP/38.3002, FIG. 5H repetition, Table 10, 4 h-5 h, read-out: MIC (60%) T2): 16 µg/mL (≈ 53.4 µM) | MIC ([1]; KP/38.3002, FIG. 5H repetition, Table 10, 4 h-5 h, read-out: MIC (75%) T2): 8 µg/mL (≈ 26.7 µM) | MIC ([1]; KP/38.3002, FIG. 5H repetition, Table 11, 3 h-4 h, read-out: MIC (25%) T1): 16 µg/mL (≈ 53.4 µM) | MIC ([1]; KP/38.3002, FIG. 5H repetition, Table 11, 3 h-4 h, read-out: MIC (40%) T1): 0.25 µg/mL (≈ 0.835 µM) | MIC ([1]; KP/38.3002, FIG. 5H repetition, Table 11, 3 h-4 h, read-out: MIC (60%) T1): 0.25 µg/mL (≈ 0.835 µM) | MIC ([1]; KP/38.3002, FIG. 5H repetition, Table 11, 3 h-4 h, read-out: MIC (75%) T1): 0.25 µg/mL (≈ 0.835 µM) | MIC ([1]; KP/38.3002, FIG. 5H repetition, Table 11, 4 h-5 h, read-out: MIC (25%) T2): 16 µg/mL (≈ 53.4 µM) | MIC ([1]; KP/38.3002, FIG. 5H repetition, Table 11, 4 h-5 h, read-out: MIC (40%) T2): 8 µg/mL (≈ 26.7 µM) | MIC ([1]; KP/38.3002, FIG. 5H repetition, Table 11, 4 h-5 h, read-out: MIC (60%) T2): 8 µg/mL (≈ 26.7 µM) | MIC ([1]; KP/38.3002, FIG. 5H repetition, Table 11, 4 h-5 h, read-out: MIC (75%) T2): 8 µg/mL (≈ 26.7 µM) | MIC ([1]; KP/153.4346, FIG. 5G, overall conclusion, read-out: MIC value determined by the method): > 256 µg/mL | MIC ([1]; MP/072.3489, FIG. 5B, overall conclusion, read-out: MIC value determined by the method): 16 µg/mL (≈ 53.4 µM) | HR? at MIC (25%) ([1]; MP/072.3489, ratio MIC T2/T1): yes (If the ratio of the MIC value in the second time frame over the MIC value in the first time frame is higher than or equal to 8 then the ratio is labelled to be heteroresistant) | HR? at MIC (40%) ([1]; MP/072.3489, ratio MIC T2/T1): yes (If the ratio of the MIC value in the second time frame over the MIC value in the first time frame is higher than or equal to 8 then the ratio is labelled to be heteroresistant) | HR? at MIC (60%) ([1]; MP/072.3489, ratio MIC T2/T1): yes (If the ratio of the MIC value in the second time frame over the MIC value in the first time frame is higher than or equal to 8 then the ratio is labelled to be heteroresistant) | HR? at MIC (75%) ([1]; MP/072.3489, ratio MIC T2/T1): yes (If the ratio of the MIC value in the second time frame over the MIC value in the first time frame is higher than or equal to 8 then the ratio is labelled to be heteroresistant) | MIC [2]: 0.25 µg/mL (≈ 0.835 µM) | MIC [3]: 0.25 µg/mL (≈ 0.835 µM) | MIC ([4]; culture KP/38.3002): 16 µg/mL (≈ 53.4 µM) | MIC ([4]; culture KP/153.4346): > 32 µg/mL | MIC ([4]; culture MP/072.3489): 16 µg/mL (≈ 53.4 µM) | MIC ([5]; culture KP/38.3002): 16 µg/mL (≈ 53.4 µM) | MIC ([5]; culture KP/153.4346): 16 µg/mL (≈ 53.4 µM) | MIC ([5]; culture MP/072.3489): 32 µg/mL (≈ 107 µM)
